# Laboratory results published in US10426159B1, “Highly efficient enhancers for antifreeze protein activity” (The Trustees of California State University, priority 2012, dated 2019).
# “Also recorded” adds a separate entry of the source. Read-outs that look alike come from different tables or passages of the source.
# T1: Dendroides canadensis antifreeze protein DAFP-1 (SEQ. ID 1, amino acid 28 through amino acid 108) (Dendroides canadensis, UniProt O46352)
# T1 construct: b42 prefers 28-108
# T1 sequence (O46352 26-108): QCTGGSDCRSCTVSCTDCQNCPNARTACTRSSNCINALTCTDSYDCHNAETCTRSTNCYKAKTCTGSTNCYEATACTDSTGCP
# Key:
# [1] = test system: DAFPs: DAFP-1, -2, -4, and -6; test: TH enhancement by exemplified enhancers for DAFPs; format: biochemical, Dendroides canadensis
# DAFP-1 = test: Antifreeze (TH) activity measurements by differential scanning calorimetry: enhancement of TH activity of DAFP-1; format: biochemical, Dendroides canadensis; settings: for enhancement ability for the TH activity of DAFP-1 (in words, relative) / molar enhancement effectiveness order: pH 7.5; for molar enhancement effectiveness order: FIG. 2 and FIG. 3
# From the text: (§1) The pH of the final samples was 7.5.
# [2] = target: T1, Dendroides canadensis antifreeze protein DAFP-1 (SEQ. ID 1, amino acid 28 through amino acid 108); test: Size-exclusion HPLC (Hummel and Dreyer gel filtration method) of NADH binding to DAFP-1; settings: pH 7.00, ambient temperature, DAFP-1 1.5-20 μM, NADH 0-270 μM, nonlinear regression
# Procedure: The formation of 1:1 complex of DAFP-1 and NADH was further confirmed by HPLC analysis. With the gel filtration method of Hummel and Dreyer, the size exclusion column can be equilibrated with a buffer containing the ligand at a known concentration. The protein sample prepared in the buffer (containing the ligand at the same concentration) is injected into the equilibrated column. If binding occurs, the concentrations of the ligand in the elution buffer and in the elution are usually different. […] The bound ligand can be determined more precisely using the internal calibration method. […]
# The binding of NADH to DAFP-1 was characterized using HPLC by an improved gel filtration method of Hummel and Dreyer (Hummel and Dreyer, 1962; Parsons, 1980). […] The eluates were monitored at 220 nm. […] The initial concentrations of NADH were determined using the molar extinction coefficient (ε340=6.22×10^3M^−1cm^−1) (Dawson et al., 1985). […] The amount of bound NADH was determined by the internal calibration method (Parsons 1980; Sun and Hsiao, 1993). The amount of free NADH is obtained fromthe difference of total NADH and calculated bound NADH. […]
# [3] = Solubility of enhancer in the TH test system; format: physicochemical
# From the text: as §1
Molecule,"enhancement ability for the TH activity of DAFP-1 (in words, relative) (DAFP-1; DSC, DAFP-1 453 μM)","molar enhancement effectiveness order (DAFP-1; DSC, DAFP-1 453 μM)",other results
O=c1[nH]c(=O)n([C@@H]2O[C@H](CO)[C@@H](O)[C@H]2O)cc1F [5-Fluorouridine],,,increase of the TH activity of DAFPs [1]: 2 fold
"NC(=O)C1=CN([C@@H]2O[C@H](COP(=O)(O)OP(=O)(O)OC[C@H]3O[C@@H](n4cnc5c(N)ncnc54)[C@H](OP(=O)(O)O)[C@@H]3O)[C@@H](O)[C@H]2O)C=CC1 [NADPH, (3-nicotinamide adenine dinucleotide phosphate, reduced]",most efficient enhancer; also recorded: much higher than any of the known enhancers,,
"Nc1ncnc2c1ncn2[C@@H]1O[C@H](COP(=O)(O)OP(=O)(O)OC[C@H]2OC(O)[C@H](O)[C@@H]2O)[C@@H](O)[C@H]1O (stereo partly shown) [ADPR, adenosine 5′-diphosphoribose]",most efficient enhancement ability among these fragments,ADPR>AMP>adenosine>R5P>pyrophosphate>ribose,
O=C[C@H](F)[C@@H](O)[C@H](O)[C@H](O)CO [2-fluoro-2-deoxy-D-glucose],,,increase of the TH activity of DAFPs [1]: 2 fold
"O=C[C@H](O)[C@H](O)[C@H](O)COP(=O)(O)O [R5P, D-ribose-5-phosphate]",,ADPR>AMP>adenosine>R5P>pyrophosphate>ribose,
"Nc1ncnc2c1ncn2[C@@H]1O[C@H](COP(=O)(O)OP(=O)(O)O)[C@@H](O)[C@H]1O [ADP, adenosine 5′-diphosphate]",less than that of ADPR; also recorded: lower than that of AMP,,
"NC(=S)c1ccc[n+]([C@@H]2O[C@H](COP(=O)([O-])OP(=O)(O)OC[C@H]3O[C@@H](n4cnc5c(N)ncnc54)[C@H](O)[C@@H]3O)[C@@H](O)[C@H]2O)c1 [TNAD, thionicotinamide adenine dinucleotide]",very efficient enhancement ability,NADH>NAD>TNAD>PAAD,
"NC(=O)C1=CN([C@@H]2O[C@H](COP(=O)(O)OP(=O)(O)OC[C@H]3O[C@@H](n4cnc5c(N)ncnc54)[C@H](O)[C@@H]3O)[C@@H](O)[C@H]2O)C=CC1 [NADH, (3-nicotinamide adenine dinucleotide, reduced]",,NADH>NAD>TNAD>PAAD,Kd [2]: 280 ± 20 nM
"NC(=O)c1ccc[n+]([C@@H]2O[C@H](COP(=O)([O-])OP(=O)(O)OC[C@H]3O[C@@H](n4cnc5c(N)ncnc54)[C@H](O)[C@@H]3O)[C@@H](O)[C@H]2O)c1 [NAD, (3-nicotinamide adenine dinucleotide]","very similar to that of its reduced form, NADH, although slightly lower",NADH>NAD>TNAD>PAAD,
"Nc1ncnc2c1ncn2[C@@H]1O[C@H](COP(=O)(O)O)[C@@H](O)[C@H]1O [AMP, (−)-adenosine 5′-monophosphate]",,ADPR>AMP>adenosine>R5P>pyrophosphate>ribose,
"O=C[C@H](O)[C@H](O)[C@H](O)CO [ribose, D-(−)-ribose]",least enhancement,ADPR>AMP>adenosine>R5P>pyrophosphate>ribose,
"Cc1cc2nc3c(=O)[nH]c(=O)nc-3n(C[C@H](O)[C@H](O)[C@H](O)COP(=O)(O)OP(=O)(O)OC[C@H]3O[C@@H](n4cnc5c(N)ncnc54)[C@H](O)[C@@H]3O)c2cc1C [FAD, flavin adenine dinucleotide]",less than those of NADH and NAD analogs,,solubility (in words) [3]: limited by its solubility
O=P(O)(O)OP(=O)(O)O [pyrophosphate],,ADPR>AMP>adenosine>R5P>pyrophosphate>ribose,
"CC(C)(COP(=O)(O)OP(=O)(O)OC[C@H]1O[C@@H](n2cnc3c(N)ncnc32)[C@H](O)[C@@H]1OP(=O)(O)O)[C@@H](O)C(=O)NCCC(=O)NCCS [CoA, coenzyme A]",less than those of NADH and NAD analogs,,
Nc1ncnc2c1ncn2[C@@H]1O[C@H](COP(=O)(O)OP(=O)(O)OP(=O)(O)O)[C@@H](O)[C@H]1O [ATP],,,increase of the TH activity of DAFPs [1]: at least 5 fold
"Nc1ncnc2c1ncn2C1OC(COP(=O)(O)OP(=O)(O)OCC2OC([n+]3cccc(C=O)c3)C(O)C2O)C(O)C1O (stereo not shown) [PAAD, 3-pyridine aldehyde adenine dinucleotide]",very efficient enhancement ability; also recorded: least effective enhancer among the analogs,NADH>NAD>TNAD>PAAD,
Nc1ncnc2c1ncn2[C@@H]1O[C@H](CO)[C@@H](O)[C@H]1O [adenosine],,ADPR>AMP>adenosine>R5P>pyrophosphate>ribose,solubility (in words) ([3]; TH test system): low solubility; enhancement ability for the TH activity of DAFP-1 at 0.080M (DAFP-1; enhancer 0.080M): lower than that of ADP
"DAFP-1: Dendroides canadensis antifreeze protein, recombinantly expressed in E. coli; SEQ. ID 1 amino acids 28 through 108 (protein, listed as Dendroides canadensis, Dendroides canadensis antifreeze protein, recombinantly expressed in E. coli; ID 1 amino acids 28 through 108) TGGSDCRSCTVSCTDCQNCPNARTACTRSSNCINALTCTDSYDCHNAETCTRSTNCYKAKTCTGSTNCYEATACTDSTGCP",,,"TH activity of the protein sample alone (DAFP-1; DAFP-1 453 μM, no enhancer, DSC): 0.69±0.01 °C; TH activity of DAFP-1 as a function of pH (DAFP-1; pH 2 to pH 12): unchanged"
